Columns and labels:
[1] = tested on: patients with Rheumatoid Arthritis; conditions: compared with methotrexate; cited from earlier work
[2] = tested on: Allergic Rabbits; conditions: allergen induced; cited from earlier work
[3] = tested on: MOLT-4 (Leukemia); assay: Growth inhibition of human tumor cells in culture (NCI); type: cell-based; conditions: logarithmic value
From the text: (§1) The preceding data collected at the National Cancer Institute summarize the ability of M-Trex to inhibit 50% of the growth of selected tumor cells in culture. The values are expressed as Log10 GI50 values all of which are lower than 10^−8M. In the same table a comparison is made of the respective values of TGI (Total Growth Inhibition) for M-Trex and MTX. […] In addition, the Log10 GI50 values of M-Trex was lower than −8.00 for the following cell lines: NSCLC, A549/ATCC and NCI H23; Colon Cancer, HCT 116, HCT 29 and SW 620; CNS Cancer, SF 268; Melanoma M 14 and UACC 62; Ovarian Cancer, OVCAR-8; Renal Cancer, ACHN, CAKI-1, SN 12C, and UO 31; Prostate Cancer, PC 3 and Breast cancer, MDA-MB-435 and MDA-N. The MG_MID value of MTX for all 49 human tumor cell lines evaluated at NCI-DTP program was −7.05. […] The tumors and sarcomas are solid while leukemia and lymphoma are liquid tumors.

[4] = tested on: K562 (Leukemia); assay: as above; type: cell-based; conditions: logarithmic value
From the text: as §1

[5] = tested on: CCRF-CEM (Leukemia); assay: as above; type: cell-based; conditions: logarithmic value
From the text: as §1

[6] = tested on: SR (Leukemia); assay: as above; type: cell-based; conditions: logarithmic value
From the text: as §1

[7] = tested on: RPMI 8226 (Leukemia); assay: as above; type: cell-based; conditions: logarithmic value
From the text: as §1

[8] = tested on: SF 539 (CNS Cancer); assay: as above; type: cell-based; conditions: logarithmic value
From the text: as §1

[9] = tested on: human tumor cell lines; conditions: all 49 human tumor cell lines evaluated at NCI-DTP program; cited from earlier work
[10] = Toxicity (maximum tolerated dose, weight loss) in nude mice bearing HCT-8 xenograft; type: in vivo; conditions: i.v. push daily × 5 in nude mice
[11] = tested on: Human HCT-8 Colon Xenograft; assay: Antitumor activity in nude mice bearing human HCT-8 colon xenograft (Example-4); type: in vivo; conditions: i.v. push daily × 5 at maximum tolerated dose (M-Trex 4.0, MTX 1.0 mg/kg/day)
From the text: There are three general accepted methods for the evaluation of Pain in patients suffering from a number of diseases. They are Visual Analog Scale (VAS); Numeric rating Scale (NRS) and Verbal Categorical Rating Scale […]. Of these three assessment methods VAS is considered to be most reliable in a majority of cases to evaluate and quantify the magnitude of the perception of Pain. Clinical trials conducted by Castaneda and Nair used VAS to assess pain intensity in RA patients receiving 10-DAAM in one trial [G. Alarcon, O. Castaneda, W. J. Koopman, C. L. Krumdieck, and M. G. Nair. U.S. Pat. No. 5,030,634 (1991)] and M-Trex (CH-1504) in another trial conducted separately. Almost all cases of cancer Pain is due to tissue inflammation, tissue compression and tissue damage secondary to rapid proliferation of cells. Therefore any therapeutic intervention that shrinks proliferating tissues can bring about significant reduction in Pain. Shown below is the efficacy of M-Trex in shrinking human colon cancer transplanted and growing in nude mice.

| Compound | Pain reduction (in words) [1] | Asthmatic Response Early [2] | Asthmatic Response Late [2] | BHR (Bronchial Hyper-Responsiveness) [2] | TGI (Total Growth Inhibition) [3] | TGI (Total Growth Inhibition) [4] | TGI (Total Growth Inhibition) [5] | TGI (Total Growth Inhibition) [6] | TGI (Total Growth Inhibition) [7] | TGI (Total Growth Inhibition) [8] | MG_MID value [9] | Maximum Tolerated dose [10] | MTGI, Maximum Tumor Growth Inhibition (% of control) ([11]; nude mice, HCT-8 xenograft) | Tumor doubling time, treated/control (%) ([11]; nude mice, HCT-8 xenograft) | TD, Tumor Doubling Time ([11]; control 2.6 ± 0.8 days) |
| --- | --- | --- | --- | --- | --- | --- | --- | --- | --- | --- | --- | --- | --- | --- | --- |
| Nc1nc(N)c2nc(CCc3ccc(C(=O)N[C@@H](CCC(=O)O)C(=O)O)cc3)cnc2n1 [10-DAAM, 10-Deazaaminopterin] | very effective in reducing Pain | – | – | – | – | – | – | – | – | – | – | – | – | – | – |
| Cn1c(=O)c2[nH]cnc2n(C)c1=O [Theophylline] | – | 45 | 49 | 39 | – | – | – | – | – | – | – | – | – | – | – |
| CN(Cc1cnc2nc(N)nc(N)c2n1)c1ccc(C(=O)N[C@@H](CCC(=O)O)C(=O)O)cc1 [MTX, methotrexate, reference compound] | – | 29 | 37 | 32 | −3.55 | −3.30 | −3.77 | −3.50 | −3.66 | −3.66 | −7.05 | MTX (1.0 mg/kg/day)^33 | 30.0 ± 9.0% | 176.92% | 4.6 ± 0.6 days |

From US20130018062A1, “Pain therapy with metabolism blocked antifolates” (priority 2011, published 2013)
